The target of test [1] is T1, SMYD3 (Homo sapiens (Human), UniProt Q9H7B4). Put plainly: SMYD3 cell assay (Trimethyl-MEKK2 In-Cell Western in 293T/17 cells transfected with MEKK2-flag and SMYD3). It is filed as cell-based. The following applies: Table 3A; average of n = 1 to n = 50; read-out: SMYD3 cell IC50. From the text:
Trimethyl-MEKK2-in-Cell Western Assay
MEM/Glutamax medium, Optimem Reduced Serum medium, penicillin-streptomycin, 0.05% trypsin and 1×D-PBS were purchased from Life Technologies, Grand Island, N.Y., USA. PBS-10× was purchased from Ambion, Life Technologies, Grand Island, N.Y., USA. PBS with Tween 20 (PBST (10×)) was purchased from KPL, Gaithersburg, Md., USA. Tet System FBS-approved FBS US Source was purchased from Clontech, Mountain View, Calif., USA. Odyssey blocking buffer, 800CW goat anti-rabbit IgG (H+L) antibody, 680CW Goat anti-mouse IgG (H+L) and Licor Odyssey infrared scanner were purchased from Licor Biosciences, Lincoln, Nebr., USA. Tri-methyl-Lysine [A260]-MEKK2 antibody, MEKK2 and SMYD3 plasmids were made at Epizyme. Anti-flag monoclonal mouse antibody was purchased from Sigma, St. Louis, Mo., USA. Methanol was purchased from VWR, Franklin, Mass., USA. 10% Tween 20 was purchased from KPL, Inc., Gaithersburg, Md., USA. Fugene was purchased from Promega, Madison, Wis., USA. The Biotek ELx405 was purchased from BioTek, Winooski, Vt., USA. The multidrop combi was purchased from Thermo Scientific, Waltham, Mass., USA.
Cell Treatment, in Cell Western (ICW) for Detection of Trimethyl-Lysine-MEKK2 and MEKK2.
Plasmids were prepared for delivery to cells by first mixing 1350 μL Opti-MEM with Fugene (81 μL) in a sterile Eppendorf and incubated for five minutes at room temperature (RT). […] Entire volume of Opti-MEM/Fugene mixture was then added to a microfuge tube containing DNA plasmid, mixed and then incubated ×15 minutes at RT. […] Medium was then removed, and cells were washed once with PBS in the flask. Trypsin 0.05% (3 mL) was added and cells incubated for three minutes. Room temperature MEM+10% Tet system FBS was added and cells were mixed gently, and counted using the Vi-cell. Cells were seeded at 100,000 cells/mL in 50 μL MEM/10% Tet FBS/Pen/Strep to a 384 well black/clear poly-D-lysine coated plate containing test agent diluted in DMSO. The final top concentration of test compound was 40 μM. […] Plates were incubated ×30 minutes at RT in low-airflow area, followed by incubation at 37° C. under 5% CO2 for 24 hours. Medium was aspirated from all wells of assay plates prior to fixation and permeabilization with ice cold (−20° C.) methanol (90 μL/well) for ten minutes. Plates were rinsed with PBS three times on BioTek ELx405. PBS was removed with a final aspiration, and Odyssey blocking buffer (50 μL/well) was added to each well and incubated for one hour at RT. Primary antibody solution was prepared (anti-trimethyl-MEKK2 at 1:600 dilution plus mouse anti-flag antibody at 1:10,000 dilution in diluent (Odyssey Blocking buffer+0.1% Tween 20)) and 20 μL per well was dispensed using the Multidrop Combi. Assay plates were then sealed with foil, and incubated overnight at 4° C. Plates were washed five times with PBS-Tween (1×) on Biotek ELx405 and blotted on paper towel to remove excess reagent.
First, the ratio for each well was determined by:
Each plate included fourteen control wells of DMSO only treatment (Minimum Inhibition) as well as fourteen control wells for maximum inhibition (Background). The average of the ratio values for each control type was calculated and used to determine the percent inhibition for each test well in the plate. Reference compound was serially diluted two-fold in DMSO for a total of nine test concentrations, beginning at 40 μM. Percent inhibition was calculated (below).
Non-linear regression curves were generated to calculate the IC50 and dose-response relationship using triplicate wells per concentration of compound.

The target of test [2] is T1, SMYD3. Put plainly: SMYD3 biochemical assay (SMYD3 enzyme assay on MEKK2 protein substrate, 3H-SAM scintillation proximity assay). The following applies: read-out: SMYD3 Biochem IC50. Summed up:
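Detection used scintillation proximity beads to capture ³H-methylated GST-MEKK2 after quench with 100 uM final cold SAM. The reaction was started by SAM/MEKK2 addition after a 30 min RT compound–enzyme preincubation. Enzyme was tag-free full-length human SMYD3 from E. coli, in buffer of 25 mM Tris-Cl pH 8.0, 1 mM TCEP, 0.005% BSG, 0.005% Tween 20.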
On the technique in general: Scintillation proximity formats need no separation of bound from free tracer.

[3] abbreviates: Table 3A, average of n = 1 to n = 50.

pIC50: −log10 of the molar value. Where a name gives a salt, the structure may show the parent alone.

The term pIC50 denotes −log10 of the IC50, conventionally taken in molar units.

T1 sequence (Q9H7B4 whole entry): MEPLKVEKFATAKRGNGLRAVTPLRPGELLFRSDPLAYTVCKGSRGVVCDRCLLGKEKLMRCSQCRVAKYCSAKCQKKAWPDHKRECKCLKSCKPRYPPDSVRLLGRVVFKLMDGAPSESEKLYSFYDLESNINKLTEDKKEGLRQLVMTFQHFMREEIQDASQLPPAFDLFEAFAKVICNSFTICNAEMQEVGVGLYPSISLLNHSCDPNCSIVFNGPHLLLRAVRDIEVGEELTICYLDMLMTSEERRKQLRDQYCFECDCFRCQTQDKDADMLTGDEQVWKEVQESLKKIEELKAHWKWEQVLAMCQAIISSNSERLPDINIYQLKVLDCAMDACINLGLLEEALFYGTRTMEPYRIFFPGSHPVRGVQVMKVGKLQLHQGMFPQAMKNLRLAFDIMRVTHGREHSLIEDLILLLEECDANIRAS

`CN1C(=O)Cc2cc(C(=O)N[C@H]3C[C@H]4CC[C@@H](C3)N4S(=O)(=O)CC3CCNCC3)ccc21` [compound 611, 1-methyl-2-oxo-N-((1R,3r,5S)-8-((piperidin-4-ylmethyl)sulfonyl)-8-azabicyclo[3.2.1]octan-3-yl)indoline-5-carboxamide]: the negative-log IC50 (pIC50) at SMYD3 [1] was 5.41; at SMYD3 [2] (setting [3]), 7.59.
The like results for `C[C@H]1C[C@H](NC(=O)c2nnc(C3CC3)s2)CCN1S(=O)(=O)N1CCC(N)CC1` [compound 631, N-((2S,4R)-1-((4-aminopiperidin-1-yl)sulfonyl)-2-methylpiperidin-4-yl)-5-cyclopropyl-1,3,4-thiadiazole-2-carboxamide] were, in that order, 5.31 and 6.33.
Taken in the same sequence, the figures for `C[C@H]1CN(S(=O)(=O)N2CCC(N)CC2)CCC1NC(=O)c1cc2c(cc1Cl)NC(=O)C2` (stereo partly drawn) [compound 603, N-((3S)-1-((4-aminopiperidin-1-yl)sulfonyl)-3-methylpiperidin-4-yl)-6-chloro-2-oxoindoline-5-carboxamide] were 5.57 and 8.07.
Taken in the same sequence, the figures for `C[C@H]1C[C@@H](NC(=O)c2cc3c(cc2Cl)NC(=O)C3)CCN1S(=O)(=O)c1ccc(C(C)(C)N)cc1` [compound 588, N-((2S,4S)-1-((4-(2-aminopropan-2-yl)phenyl)sulfonyl)-2-methylpiperidin-4-yl)-6-chloro-2-oxoindoline-5-carboxamide] were 6.45 and 8.70.
Regarding `O=C1Cc2cc(C(=O)N[C@H]3C[C@H]4CC[C@@H](C3)N4S(=O)(=O)CC3CCN(CCCO)CC3)ccc2N1` [compound 581, N-((1R,3r,5S)-8-(((1-(3-hydroxypropyl)piperidin-4-yl)methyl)sulfonyl)-8-azabicyclo[3.2.1]octan-3-yl)-2-oxoindoline-5-carboxamide], the negative-log IC50 (pIC50) on SMYD3 [1] was 5.78; at SMYD3 [2] (setting [3]), 9.02.
The like results for `O=C(N[C@H]1C[C@H]2CC[C@@H](C1)N2S(=O)(=O)CC1CCNCC1)c1ccc2[nH]c(=O)oc2c1` [Cpd. No. 601, 2-oxo-N-((1R,3r,5SR)-8-(piperidin-4-ylmethylsulfonyl)-8-aza-bicyclo[3.2.1]octan-3-yl)-2,3-dihydrobenzo[d]oxazole-6-carboxamide Hydrochloride] were, in that order, 5.34 and 8.28.
The like results for `CC(C)(N)c1ccc(S(=O)(=O)N2[C@@H]3CC[C@H]2C[C@@H](NC(=O)c2cc4c(cc2Cl)NC(=O)C4)C3)cc1` [compound 613, N-((1R,3r,5S)-8-((4-(2-aminopropan-2-yl)phenyl)sulfonyl)-8-azabicyclo[3.2.1]octan-3-yl)-6-chloro-2-oxoindoline-5-carboxamide] were, in that order, 5.75 and 7.43.
For the compound `CN1CCC(CS(=O)(=O)N2[C@@H]3CC[C@H]2C[C@@H](NC(=O)c2ccc4c(c2)CC(=O)N4)C3)CC1` [compound 577, N-((1R,3r,5S)-8-(((1-methylpiperidin-4-yl)methyl)sulfonyl)-8-azabicyclo[3.2.1]octan-3-yl)-2-oxoindoline-5-carboxamide], the pIC50 on SMYD3 [1] was 6.32; on SMYD3 [2] it was 9.17.
On to `O=C1Cc2cc(C(=O)N[C@H]3C[C@H]4CC[C@@H](C3)N4S(=O)(=O)CCN3CCCC3)ccc2N1` [compound 615, 2-oxo-N-((1R,3r,5S)-8-((2-(pyrrolidin-1-yl)ethyl)sulfonyl)-8-azabicyclo[3.2.1]octan-3-yl)indoline-5-carboxamide], for which the negative logarithm of the IC50 (pIC50) was 6.12 on SMYD3 [1] and 7.30 on SMYD3 [2].
On to `O=C1Cc2cc(C(=O)N[C@H]3C[C@H]4CC[C@@H](C3)N4S(=O)(=O)CC3CCN(CCCC(F)(F)F)CC3)c(Cl)cc2N1` [Cpd. No. 595, 6-chloro-2-oxo-N-((1S,3r,5R)-8-((1-(4,4,4-trifluorobutyl)piperidin-4-yl)methylsulfonyl)-8-aza-bicyclo[3.2.1]octan-3-yl)indoline-5-carboxamide], for which the negative logarithm of the IC50 (pIC50) is 7.44 at SMYD3 [1] and 8.45 on SMYD3 [2] (setting [3]).
Turning to `CC(=O)Nc1ccc(S(=O)(=O)N2CC[C@H](NC(=O)c3ccc4c(c3)CC(=O)N4)C[C@@H]2C)cc1` [compound 632, N-((2S,4S)-1-(4-acetamidophenylsulfonyl)-2-methylpiperidin-4-yl)-2-oxoindoline-5-carboxamide], the pIC50 at SMYD3 [1] is at most 5.00; at SMYD3 [2] (setting [3]), 6.28.
Taken in the same sequence, the figures for `CN1C(=O)Cc2cc(C(=O)N[C@H]3C[C@H]4CC[C@@H](C3)N4S(=O)(=O)N3CCC(N)CC3)c(Cl)cc21` [compound 604, N-((1R,3r,5S)-8-((4-aminopiperidin-1-yl)sulfonyl)-8-azabicyclo[3.2.1]octan-3-yl)-6-chloro-1-methyl-2-oxoindoline-5-carboxamide] were 6.68 and 7.87.
Regarding `NCCCS(=O)(=O)N1CCC(NC(=O)c2cc3c(cc2Cl)NC(=O)C3)CC1` [compound 621, N-(1-((3-aminopropyl)sulfonyl)piperidin-4-yl)-6-chloro-2-oxoindoline-5-carboxamide], the pIC50 at SMYD3 [1] was 5.17; at SMYD3 [2] (setting [3]) it was 7.11.
Taken in the same sequence, the figures for `N[C@H]1CC[C@H](S(=O)(=O)N2[C@@H]3CC[C@H]2C[C@@H](NC(=O)c2cc4c(cc2Cl)NC(=O)C4)C3)CC1` [compound 583, N-((1R,3R,5S)-8-(((1r,4R)-4-aminocyclohexyl)sulfonyl)-8-azabicyclo[3.2.1]octan-3-yl)-6-chloro-2-oxoindoline-5-carboxamide] were 5.82 and 8.96.
On to `CCc1cnnc(C(=O)N[C@H]2C[C@H]3CC[C@@H](C2)N3S(=O)(=O)N2CCC(N)CC2)c1` [compound 616, N-[(1R,3r,5S)-8-(4-aminopiperidine-1-sulfonyl)-8-azabicyclo[3.2.1]octan-3-yl]-5-ethylpyridazine-3-carboxamide Trifluoroacetate], for which the pIC50 was 6.27 on SMYD3 [1] and 7.30 at SMYD3 [2].
Regarding `NC1CCN(S(=O)(=O)N2[C@@H]3CC[C@H]2C[C@@H](NC(=O)c2cc(C4CC4)[nH]n2)C3)CC1` [compound 633, N-((1R,3r,5S)-8-((4-aminopiperidin-1-yl)sulfonyl)-8-azabicyclo[3.2.1]octan-3-yl)-5-cyclopropyl-1H-pyrazole-3-carboxamide], the figures for the negative logarithm of the IC50 (pIC50) on SMYD3 [1] and on SMYD3 [2] (setting [3]) were at most 5.00 and 6.28, respectively.
`CC(C)(N)c1ccc(S(=O)(=O)N2[C@@H]3CC[C@H]2C[C@@H](NC(=O)c2ccc4c(c2)CC(=O)N4)C3)cc1` [compound 612, N-((1R,3r,5S)-8-((4-(2-aminopropan-2-yl)phenyl)sulfonyl)-8-azabicyclo[3.2.1]octan-3-yl)-2-oxoindoline-5-carboxamide]: the results for the pIC50 at SMYD3 [1] and at SMYD3 [2] (setting [3]) were 5.60 and 7.51, respectively.
Taken in the same sequence, the figures for `O=C1Cc2cc(C(=O)N[C@H]3C[C@H]4CC[C@@H](C3)N4S(=O)(=O)CC3CCN(CCCO)CC3)c(Cl)cc2N1` [compound 585, 6-chloro-N-((1R,3r,5S)-8-(((1-(3-hydroxypropyl)piperidin-4-yl)methyl)sulfonyl)-8-azabicyclo[3.2.1]octan-3-yl)-2-oxoindoline-5-carboxamide] were 6.12 and 8.76.

These data come from US10266526B2, “Substituted 1,2,3-triazoles as SMYD inhibitors for treating cancer” (EPIZYME, INC., priority 2014, dated 2019).
